Assay results: the NIST ThermoML archive (doi:10.1016/j.tca.2013.08.031)

Assay: molar heat capacity at constant volume
Conditions: Fluid (supercritical or subcritical phases), Vacuum adiabatic calorimetry

CCC(C)O (stereo unspecified) [butan-2-ol]
Conditions | molar heat capacity at constant volume [J/K/mol]
538.48 K, Mass density=279.19 kg/m3 | 275.36
538.48 K, Mass density=284.93 kg/m3 | 266.32
538.48 K, Mass density=286.65 kg/m3 | 296.63
538.48 K, Mass density=301.19 kg/m3 | 256.46
538.66 K, Mass density=117 kg/m3 | 318.5
538.66 K, Mass density=284.93 kg/m3 | 265.65
538.66 K, Mass density=286.65 kg/m3 | 296.86
538.66 K, Mass density=301.19 kg/m3 | 250.53
538.84 K, Mass density=117 kg/m3 | 306.2
538.84 K, Mass density=286.65 kg/m3 | 297.08
539.03 K, Mass density=286.65 kg/m3 | 296.34
539.57 K, Mass density=286.65 kg/m3 | 285.07
539.76 K, Mass density=279.19 kg/m3 | 283.52
539.76 K, Mass density=286.65 kg/m3 | 288.78
539.94 K, Mass density=184.89 kg/m3 | 261.35
539.94 K, Mass density=276.45 kg/m3 | 295.89
539.94 K, Mass density=279.19 kg/m3 | 284.48
539.94 K, Mass density=286.65 kg/m3 | 282.33
540.12 K, Mass density=184.89 kg/m3 | 273.06
540.12 K, Mass density=276.45 kg/m3 | 293.89
540.12 K, Mass density=279.19 kg/m3 | 283.74
540.12 K, Mass density=286.65 kg/m3 | 282.03
540.12 K, Mass density=403.55 kg/m3 | 223.85
540.3 K, Mass density=184.89 kg/m3 | 272.25
540.3 K, Mass density=276.45 kg/m3 | 297.6
540.3 K, Mass density=286.65 kg/m3 | 280.4
540.3 K, Mass density=403.55 kg/m3 | 225.33
540.48 K, Mass density=184.89 kg/m3 | 275.73
540.48 K, Mass density=276.45 kg/m3 | 293.15
540.48 K, Mass density=403.55 kg/m3 | 226.81
540.67 K, Mass density=184.89 kg/m3 | 280.18
540.67 K, Mass density=279.19 kg/m3 | 274.92
540.67 K, Mass density=403.55 kg/m3 | 223.85
540.85 K, Mass density=184.89 kg/m3 | 275.21
540.85 K, Mass density=279.19 kg/m3 | 281.29
540.85 K, Mass density=403.55 kg/m3 | 223.11
541.03 K, Mass density=279.19 kg/m3 | 276.47
541.03 K, Mass density=403.55 kg/m3 | 220.88
541.21 K, Mass density=279.19 kg/m3 | 278.4
541.4 K, Mass density=279.19 kg/m3 | 276.92
542.67 K, Mass density=301.19 kg/m3 | 240.15
542.85 K, Mass density=301.19 kg/m3 | 240.9
543.03 K, Mass density=301.19 kg/m3 | 240.15
547.21 K, Mass density=286.65 kg/m3 | 273.21
547.39 K, Mass density=286.65 kg/m3 | 272.69
547.57 K, Mass density=284.93 kg/m3 | 247.34
547.57 K, Mass density=286.65 kg/m3 | 276.33
547.75 K, Mass density=284.93 kg/m3 | 250.31
547.75 K, Mass density=286.65 kg/m3 | 276.62
547.93 K, Mass density=284.93 kg/m3 | 248.31
547.93 K, Mass density=286.65 kg/m3 | 276.1
548.11 K, Mass density=284.93 kg/m3 | 247.79
548.11 K, Mass density=286.65 kg/m3 | 276.33
548.11 K, Mass density=347.06 kg/m3 | 235.71
548.29 K, Mass density=284.93 kg/m3 | 248.68
548.29 K, Mass density=286.65 kg/m3 | 278.03
548.29 K, Mass density=347.06 kg/m3 | 236.45
548.47 K, Mass density=284.93 kg/m3 | 248.31
548.47 K, Mass density=286.65 kg/m3 | 278.55
548.47 K, Mass density=347.06 kg/m3 | 235.71
548.65 K, Mass density=286.65 kg/m3 | 278.03
548.65 K, Mass density=347.06 kg/m3 | 234.22
550.28 K, Mass density=284.93 kg/m3 | 236.74
550.46 K, Mass density=284.93 kg/m3 | 238.08
550.46 K, Mass density=403.55 kg/m3 | 218.66
550.64 K, Mass density=403.55 kg/m3 | 217.92
550.82 K, Mass density=284.93 kg/m3 | 236.52
550.82 K, Mass density=403.55 kg/m3 | 220.88
551 K, Mass density=284.93 kg/m3 | 236.3
551 K, Mass density=403.55 kg/m3 | 220.88
551.18 K, Mass density=403.55 kg/m3 | 220.14
551.36 K, Mass density=403.55 kg/m3 | 220.88
557.3 K, Mass density=286.65 kg/m3 | 252.16
557.3 K, Mass density=347.06 kg/m3 | 220.14
557.48 K, Mass density=286.65 kg/m3 | 253.13
557.48 K, Mass density=347.06 kg/m3 | 220.88
557.66 K, Mass density=286.65 kg/m3 | 251.94
557.66 K, Mass density=347.06 kg/m3 | 217.92
557.84 K, Mass density=286.65 kg/m3 | 252.16
557.84 K, Mass density=347.06 kg/m3 | 220.14
558.02 K, Mass density=286.65 kg/m3 | 253.64
558.2 K, Mass density=284.93 kg/m3 | 236.45
558.2 K, Mass density=286.65 kg/m3 | 258.98
558.38 K, Mass density=284.93 kg/m3 | 243.27
558.38 K, Mass density=286.65 kg/m3 | 261.43
558.56 K, Mass density=284.93 kg/m3 | 241.49
558.56 K, Mass density=286.65 kg/m3 | 257.05
558.74 K, Mass density=284.93 kg/m3 | 241.71
558.74 K, Mass density=286.65 kg/m3 | 258.02
558.92 K, Mass density=284.93 kg/m3 | 246.38
558.92 K, Mass density=286.65 kg/m3 | 259.28
559.09 K, Mass density=286.65 kg/m3 | 264.39
559.27 K, Mass density=286.65 kg/m3 | 254.83
559.45 K, Mass density=286.65 kg/m3 | 252.68
559.63 K, Mass density=286.65 kg/m3 | 264.39
560.64 K, Mass density=284.93 kg/m3 | 246.75
560.89 K, Mass density=286.65 kg/m3 | 262.17
561.24 K, Mass density=286.65 kg/m3 | 254.83
561.42 K, Mass density=286.65 kg/m3 | 257.28
561.6 K, Mass density=286.65 kg/m3 | 257.79
561.78 K, Mass density=286.65 kg/m3 | 256.83
561.96 K, Mass density=286.65 kg/m3 | 257.57
562.14 K, Mass density=286.65 kg/m3 | 257.05
562.32 K, Mass density=286.65 kg/m3 | 258.98
562.49 K, Mass density=286.65 kg/m3 | 254.61
562.67 K, Mass density=286.65 kg/m3 | 256.61
